Source: patent publication US7897387B2, “Fungal cell wall synthesis gene” (Eisai R&D Management Co., Ltd., priority 2000, dated 2011)
≈ marks a conversion by molar mass, not a printed value.

What was measured:
Type in all cases: cell-based
[1] = system: S. cerevisiae CW63/GWT1 strain; assay: Growth of GWT1-overexpressed S. cerevisiae CW63/GWT1 strain; settings: for sensitivity or resistance of the GWT1-overexpressed strain: GWT1-overexpressed strain compared with wild type strain
Protocol: (§1) S. cerevisiae CW63 strain having a cephalosporinase gene as the reporter gene was cultured by the method according to Example A1, TRP1 of the integration vector was cleaved with EcoRV, and then transformation was carried out by the method of Example A1. GWT1-overexpressed strain (S. cerevisiae CW63/GWT1 strain) was obtained by culturing in SD(Trp^−) medium at 30° C. for 3 days.
(§2) Using S. cerevisiae CW63 strain and GWT1 gene introduced S. cerevisiae CW63/GWT1, activity of the aforementioned compound (Ia) was examined by a method according to the method described in Example A2.

[2] = system: process that transports GPI-anchored proteins to the cell wall; assay: S. cerevisiae reporter system (cephalosporinase-CWP2 fusion, CW63 strain); settings: S. cerevisiae reporter system of Example A2, cell wall fraction
Protocol: Since sensitivity of the enzyme reaction is better with cephalosporinase compared to lysozyme, S. cerevisiae introduced with pRCW63T (S. cerevisiae CW63 strain) was used for the screening of compounds.
(§3) After stationary cultivation in YPD liquid medium at 30° C. for 48 hours, the yeast cell culture was diluted 100 times with YPD liquid medium (3-5×10^5 cells/ml) and 75 μl/well aliquots thereof were inoculated into a V-bottomed 96-well plate containing 25 μl/well of a diluted test sample, and this was subjected to stationary cultivation at 30° C. for 48 hours. After centrifuging the plate, 25 μl of the supernatant was sampled and placed in a flat-bottomed 96-well plate, and this was used as the culture supernatant fraction.
The precipitated cells were suspended, and 75 μl/well aliquots of Zymolyase (Seikagaku Corporation) solution prepared with 2.4 M sorbitol were added and were allowed to react at 30° C. for 1 hour. After centrifuging the plate, 10 μl of the supernatant was sampled and placed in a flat-bottomed 96-well plate, 15 μl of phosphate buffer was added, and this was used as the cell wall fraction.
The cephalosporinase activities in the medium and in the cell wall fraction were measured by adding 200 μM of nitrocefin solution to a pooled sample, and after a certain period of time, stopping the reaction with citric acid buffer, and then measuring the absorbance at 490 nm.
Compounds were evaluated using the S. cerevisiae reporter system of Example A2. The lowest concentration at which cephalosporinase activity in the cell wall fraction became 50% or less compared to that obtained where the compound was not treated, was defined to be the IC50 value.

[3] = system: mutant GWT1 gene (R1 or R5); assay: Growth of GWT1-disrupted S. cerevisiae clone harbouring mutant GWT1 gene (R1 or R5) plasmid; settings: chromosomal GWT1 disrupted, pRS316GWT1-R1 or pRS316GWT1-R5, medium containing the compound
Protocol: S. cerevisiae LW63 strain having a lysozyme gene as the reporter gene due to introduction of pRLW63T was treated with ethyl methanesulfonate, then by culturing in a SD medium containing the aforementioned compound of the formula (Ia) at concentrations of 1.56, 3.13, and 6.25 μg/ml at 37° C. for 3 days, five resistant mutant strains (R1 to R5) were obtained. […] To confirm whether or not these two mutant strains have mutations on the GWT1 gene, genomic DNAs were extracted from both mutant strains, and the nucleotide sequence of the GWT1 gene portion was determined. As a result, in the R1 mutant strain, guanine at position 1213 had been mutated to adenine. Furthermore, in the R5 mutant strain, guanine at position 418 had been mutated to adenine. Therefore, it was elucidated that in the R1 mutant strain, the 405th amino acid, […], and in the R5 mutant strain, the 140th amino acid, glycine, had been changed to arginine.
Next, to confirm whether or not these mutations are the cause of the acquisition of the specific resistant characteristic to the aforementioned compound of the formula (Ia), the mutant GWT1 gene (R1 or R5) was isolated using the genomic DNAs derived from both mutant strains as templates and the primers of SEQ ID NOs: 60 and 61. […]

[4] = system: process that transports GPI-anchored proteins to the cell wall; assay: Reporter system in S. cerevisiae overexpressing the GWT1 gene product (CW63/GWT1 strain); settings: 0.39 to 1.56 μg/ml, FIG. 6
Protocol: as §1, §2

[5] = system: S. cerevisiae CW63 strain; assay: Fungal growth of S. cerevisiae CW63 strain by visual observation; settings: FIG. 2
Protocol: as §3
Furthermore, fungal growth in the presence of the test sample was determined by visual observation.

GWT1-deficient strain = assay: Growth of GWT1-deficient S. cerevisiae strain
Protocol: His5 cassette containing the GWT1 sequence on both ends was amplified by PCR using the his5 gene of S. pombe (Longtine M S et al, Yeast, 14: 953-961, 1998) as template and SEQ ID NO:25 and SEQ ID NO:26 as primers.
S. cerevisiae G2-10 was cultured and the cells were collected by the method according to Example A1, and the abovementioned PCR product was transformed by the method according to Example A1. A GWT1-deficient strain was obtained by cultivation in SD(His^−) medium at 30° C. for 5 to 7 days.

[6] = system: adhesion of C. albicans to animal cells; assay: Adhesion of C. albicans to animal cells (IEC-18); settings: 1.56 μg/ml, immobilized IEC-18 cells, FIG. 3
Protocol: Three-milliliter aliquots of IEC-18 cells (1×10^5 cells/ml in D-MEM medium (Nissui Pharmaceutical) containing 10% fetal calf serum and 2 mM glutamine) were placed in each well of a 6-well multi-well plate. The plate was incubated in a carbon dioxide gas incubator at 37° C. for 3 days, the culture supernatant was removed, and ethanol immobilization was carried out.
C. albicans cultured in Sabouraud Dextrose Liquid Medium containing various concentrations of the test sample at 30° C. for 48 hours was adjusted to 4×10^2 cells/ml, and 1 ml was inoculated into each well of the plate in which the immobilized IEC-18 cells were cultured. After cultivation at 30° C. for 1 hour, the culture supernatant was removed, washed with PBS, and then 2 ml of Sabouraud Dextrose Agar Medium (Difco) was superposed. After cultivation at 30° C. overnight, the number of colonies (CFU) that had grown was counted and the adhesion rate was calculated.

C. albicans cell wall = assay: Transmission electron microscopy of the C. albicans cell wall; settings: C. albicans cultured in the presence of the compound, compared to untreated cells
Protocol: C. albicans which was cultured in Sabouraud Dextrose Liquid Medium (5 ml) containing various concentrations of the test agent at 30° C. for 48 hours, then centrifuged, and collected, was immobilized by potassium permanganate immobilization method, and the transmission electron microscope image thereof was observed.
This flocculent fibrous structure was not influenced by other existing antifungal agents.

C. albicans = assay: Growth of C. albicans in the presence of the compound

Structure (SMILES)	sensitivity or resistance of the GWT1-overexpressed strain [1]	IC50 (lowest concentration at which cephalosporinase activity in the cell wall fraction became 50% or less compared to no compound) [2]	also measured
C[C@@H]1C[C@@H]([C@H](O)CC2CC(=O)NC(=O)C2)C(=O)[C@@H](C)C1 [cycloheximide]	sensitive	–	–
CCCCc1ccc(Cc2nccc3sccc23)cc1 [Example B187, 4-(4-Butylbenzyl)thieno[3,2-c]pyridine]	–	0.78 µg/mL (≈ 2.77 µM)	–
CCCCc1ccc(Cc2nccc(OC)c2OC)cc1 [Example B242, 2-(4-Butylbenzyl)-3,4-dimethoxypyridine]	–	0.78 µg/mL (≈ 2.73 µM)	–
CCCCc1ccc(Cc2nccc3ccccc23)cc1 [Example B2, 1-(4-Butylbenzyl)isoquinoline]	–	0.39 µg/mL (≈ 1.42 µM)	–
CCCCc1ccc(Cc2ncccc2OC)cc1 [Example B231, 2-(4-Butylbenzyl)-3-methoxypyridine]	–	0.78 µg/mL (≈ 3.05 µM)	–
CCCCc1ccc(Cc2nccc3ccccc23)cc1 [compound (Ia), 1-(4-butylbenzyl)isoquinoline]	showing resistance	–	resistance of clone expressing a single copy of mutant GWT1 gene (R1 or R5) [3]: resistance to the aforementioned compound of the formula (Ia) was seen; growth inhibition ([1]; CW63/GWT1 strain, >3.13 μg/ml, FIG. 6): growth inhibition was not observed; influence on cephalosporinase activity in culture supernatant and cell wall fractions [4]: no influence was observed; concentration at which growth inhibition was observed [5]: ≥ 3.13 µg/mL; influence on growth of the GWT1-deficient strain (GWT1-deficient strain): growth is not influenced; adhesion of C. albicans to animal cells [6]: inhibited to about a half; flocculent fibrous structure of the outermost layer of the cell having high electron density (C. albicans cell wall): disappeared leaving a small amount of the layer with high electron density; growth inhibition of C. albicans (C. albicans; 1.56 μg/ml): growth inhibition cannot be observed; growth of C. albicans (C. albicans; no concentration stated): inhibits the growth
CCCCc1ccc(Cc2nccc3ccccc23)c(O)c1 [Example B85, 5-Butyl-2-(1-isoquinolylmethyl)phenol]	–	0.20 µg/mL (≈ 0.686 µM)	–
CC(=O)N(C)CCCc1ccc(Cc2nccc3ccccc23)cc1 [Example B73, N-{3-[4-(1-isoquinolylmethyl)phenyl]propyl}-N1-methylacetamide]	–	50 µg/mL (≈ 150 µM)	–
CCCCNC(=O)n1c(NC(=O)OC)nc2ccccc21 [benomyl]	sensitive	–	–
C[C@@H]1[C@H](O)[C@@H](C)/C=C/C=C/C=C/C=C/C=C/C=C/C=C/[C@H](O[C@@H]2O[C@H](C)[C@@H](O)[C@H](N)[C@@H]2O)C[C@@H]2O[C@](O)(C[C@@H](O)C[C@@H](O)[C@H](O)CC[C@@H](O)C[C@@H](O)CC(=O)O[C@H]1C)C[C@H](O)[C@H]2C(=O)O [amphotericin B]	sensitive	–	–
CC(=O)NCC#Cc1ccc(Cc2nccc3ccccc23)cc1 [Example B60, N-{3-[4-(1-Isoquinolylmethyl)phenyl]-2-propynyl}acetamide]	–	6.25 µg/mL (≈ 19.9 µM)	–
CCCCc1ccc(Cc2nccc3ccsc23)cc1 [Example B195, 7-(4-Butylbenzyl)thieno[2,3-c]pyridine]	–	0.39 µg/mL (≈ 1.39 µM)	–
